Patent US11840528B2 (Hoffmann-La Roche Inc., priority 2018, dated 2023)

Assays:
h-GABA-A α5β3γ2 [1] = target: T1, h-GABA-A α5β3γ2 (Homo sapiens, UniProt P18507+P31644); experiment: [3H]flumazenil competition binding assay, membranes of HEK293 cells expressing GABAA receptors; conditions: displacement of [3H]-Flumazenil 0.5 nM, HEK293 cells expressing human receptors, mean of two determinations; Table 1
Method: The affinity of compounds at GABAA receptor subtypes was measured by competition for [3H]flumazenil (85 Ci/mmol; Roche) binding to HEK293 cells expressing rat (stably transfected) or human (transiently transfected) receptors of composition α1β3γ2, α2β3γ2, α3β3γ2 and α5β3γ2.
Cell pellets were suspended in Krebs-tris buffer (4.8 mM KCl, 1.2 mM CaCl2), 1.2 mM MgCl2, 120 mM NaCl, 15 mM Tris; pH 7.5; binding assay buffer), homogenized by polytron for ca. 20 sec on ice and centrifuged for 60 min at 4° C. (50000 g; Sorvall, rotor: SM24=20000 rpm). The cell pellets were resuspended in Krebs-tris buffer and homogenized by polytron for ca. 15 sec on ice. Protein was measured (Bradford method, Bio-Rad) and aliquots of 1 mL were prepared and stored at −80° C.
Assays were incubated to equilibrium for 1 hour at 4° C. and harvested onto GF/C uni-filters (Packard) by filtration using a Packard harvester and washing with ice-cold wash buffer (50 mM Tris; pH 7.5). After drying, filter-retained radioactivity was detected by liquid scintillation counting. Ki values were calculated using Excel-Fit (Microsoft) and are the means of two determinations.

h-GABA-A α5β3γ2 [2] = target: T1, h-GABA-A α5β3γ2; experiment: Two-electrode voltage clamp electrophysiology in Xenopus laevis oocytes expressing GABAA receptors, modulation of GABA EC20 current; format: cell-based; parameters: host or cells: Xenopus laevis oocytes micro-injected with RNA transcripts of the subunits; conditions: Table 1; for Efficacy (GABA) %: % modulation of GABA EC20 = 100*(Fold increase-1); for Fold increase h-GABA-A α5β3γ2 oocyte: test compound at approx. 30 fold its Ki, GABA at EC20
Method: Xenopus laevis oocytes at maturation stages V-VI were used for the expression of cloned mRNA encoding GABAA receptor subunits. Oocytes ready for RNA micro-injection were bought from Ecocyte, Castrop-Rauxel, Germany and stored in modified Barth's medium (composition in mM: NaCl 88, KCl 1, NaHCO32.4, HEPES 10, MgSO4 0.82, CaNO3 0.33, CaCl2 0.33, pH=7.5) at 20° C. until the experiment.
Oocytes were plated in 96-well plates to be used in an automated instrument (Robo-ocyte, MultiChannelSystems, Reutlingen, Germany) for microinjection and electrophysiological recordings. Approximately 50 nl of an aqueous solution containing the RNA transcripts for the subunits of the desired GABAA receptor was injected into each oocyte. RNA concentrations ranged between 0.3 and 16 ng/μl/subunit and were adjusted in pilot experiments to obtain GABA responses of a suitable size and a maximal effect of the reference modulator, Beta-CCM (β-CCM), a betacarboline negative allosteric modulator (NAM) at the GABAA receptor benzodiazepine (BZD) binding site or Midazolam, a benzodiazepine positive allosteric modulator (PAM) at the GABAA receptor benzodiazepine (BZD) binding site. The concentration of the γ2 subunit encoding RNA usually was 5- to 10-fold higher than the RNAs encoding the other subunits. Oocytes were kept in modified Barth's medium (composition in mM: NaCl 88, KCl 1, NaHCO3 4, HEPES 10, MgSO4 0.82, CaNO3 0.33, CaCl2) 0.33, pH=7.5) at 20° C. until the experiment.
Electrophysiological experiments were performed on days 3 to 5 after the micro-injection of mRNA. During the experiment the oocytes were constantly superfused by a solution containing (in mM) NaCl 90, KCl 1, HEPES 5, MgCl2 1, CaCl2) 1 (pH 7.4). Oocytes were impaled by two glass microelectrodes (resistance: 0.4 MΩ) which were filled with a solution containing KCl 1M+K-acetate 1.5 M and voltage-clamped to −80 mV. The recordings were performed at room temperature using the Roboocyte two-electrode voltage clamp system (Multichannelsystem). After an initial equilibration period of 1.5 min GABA was added for 1.5 min at a concentration evoking approximately 20% of a maximal current response (EC20). After another rest interval of 2.5 min GABA was again added evoking a response of similar amplitude and shape. 0.5 min after the onset of this second GABA application the test compound, at a concentration corresponding to approximatively 30 fold its Ki, was added while GABA was still present. Current traces were recorded at a digitization rate of 10 Hz during and shortly before and after the GABA application.
Each compound and concentration was tested on at least 3 oocytes. Different oocytes were used for different compound concentrations. β-CCM, a negative allosteric modulator, or Midazolam, a positive allosteric modulators, were tested on a few (3-6) oocytes on each 96-well plate for a positive control at a maximally effective. β-CCM inhibited the GABA-evoked current by approximatively 50% (Fold increase ˜0.5), while Midazolam potentiated the GABA-induced current by approximatively 150% (Fold increase ˜2.5).
For the analysis, the digitized current traces of the first and second GABA response were superimposed and, if necessary, rescaled to equal maximal amplitudes. The ratio between the two responses during the time interval of test compound application was calculated point by point. The extremum of the resulting “ratio trace” was taken as the efficacy (“Fold increase”) of the compound expressed as “% modulation of GABA EC20” (100*(Fold increase-1)).

## Cc1ccc(-c2noc(C)c2Cn2ncc(N3CC4(CCC(C(F)(F)F)CO4)C3)cc2=O)nn1 (single isomer, unassigned) [Example 320]
h-GABA-A α5β3γ2 [1]
  Ki: 24.8 nM
h-GABA-A α5β3γ2 [2]
  Efficacy (GABA) %: 226%
  Fold increase h-GABA-A α5β3γ2 oocyte: 3.26

## Cc1ccc(-c2noc(C)c2Cn2ncc(N3CC4(CCC(C(F)(F)F)CO4)C3)cc2=O)nn1 (single isomer, unassigned) [Example 321]
h-GABA-A α5β3γ2 [1]
  Ki: 6.3 nM
h-GABA-A α5β3γ2 [2]
  Efficacy (GABA) %: 129%
  Fold increase h-GABA-A α5β3γ2 oocyte: 2.29

## Cc1onc(-c2ccc(Cl)nc2)c1Cn1ncc(N2CC3(CCC(C(F)(F)F)CO3)C2)cc1=O (single isomer, unassigned) [Example 323]
h-GABA-A α5β3γ2 [1]
  Ki: 43.1 nM
h-GABA-A α5β3γ2 [2]
  Efficacy (GABA) %: 76%
  Fold increase h-GABA-A α5β3γ2 oocyte: 1.76

## CCc1onc(-c2ccc(C)nn2)c1Cn1ncc(N2CC3(CCC(F)CO3)C2)cc1=O (single isomer, unassigned) [Example 325]
h-GABA-A α5β3γ2 [1]
  Ki: 3.2 nM
h-GABA-A α5β3γ2 [2]
  Efficacy (GABA) %: 178%
  Fold increase h-GABA-A α5β3γ2 oocyte: 2.78

## Cc1ccc(-c2noc(C)c2Cn2ncc(N3CCC4(CC3)CC(F)CCO4)cc2=O)nn1 (single isomer, unassigned) [Example 326]
h-GABA-A α5β3γ2 [1]
  Ki: 1.9 nM
h-GABA-A α5β3γ2 [2]
  Efficacy (GABA) %: 164%
  Fold increase h-GABA-A α5β3γ2 oocyte: 2.64

## Cc1ccc(-c2noc(C)c2Cn2ncc(N3CCC4(CC3)CC(F)CCO4)cc2=O)nn1 (single isomer, unassigned) [Example 327]
h-GABA-A α5β3γ2 [1]
  Ki: 3.6 nM
h-GABA-A α5β3γ2 [2]
  Efficacy (GABA) %: 122%
  Fold increase h-GABA-A α5β3γ2 oocyte: 2.22

## Cc1ccc(-c2noc(CF)c2Cn2ncc(N3CC4(CCC(F)CO4)C3)cc2=O)nn1 (single isomer, unassigned) [Example 329]
h-GABA-A α5β3γ2 [1]
  Ki: 58.7 nM
h-GABA-A α5β3γ2 [2]
  Efficacy (GABA) %: 164%
  Fold increase h-GABA-A α5β3γ2 oocyte: 2.64

## Cc1onc(-c2ccc(Cl)nc2)c1Cn1ncc(N2CCC3(CC2)CC(F)CCO3)cc1=O (single isomer, unassigned) [Example 330]
h-GABA-A α5β3γ2 [1]
  Ki: 48.8 nM
h-GABA-A α5β3γ2 [2]
  Efficacy (GABA) %: 159%
  Fold increase h-GABA-A α5β3γ2 oocyte: 2.59

## Cc1onc(-c2ccc(Cl)nc2)c1Cn1ncc(N2CCC3(CC2)CC(F)CCO3)cc1=O (single isomer, unassigned) [Example 331]
h-GABA-A α5β3γ2 [1]
  Ki: 17.6 nM
h-GABA-A α5β3γ2 [2]
  Efficacy (GABA) %: 159%
  Fold increase h-GABA-A α5β3γ2 oocyte: 2.59

## Cc1onc(-c2ncc(C(F)(F)F)cn2)c1Cn1ncc(N2CC3(CCC(F)CO3)C2)cc1=O (single isomer, unassigned) [Example 332]
h-GABA-A α5β3γ2 [1]
  Ki: 2.6 nM
h-GABA-A α5β3γ2 [2]
  Efficacy (GABA) %: 65%
  Fold increase h-GABA-A α5β3γ2 oocyte: 1.65

## CC(=O)N(C)[C@H]1CCN(c2cnn(Cc3c(-c4ccc(C)nc4)noc3C)c(=O)c2)C1 [Example 1, N-methyl-N-[(3S)-1-[1-[[5-methyl-3-(6-methyl-3-pyridyl)isoxazol-4-yl]methyl]-6-oxo-pyridazin-4-yl]pyrrolidin-3-yl]acetamide]
h-GABA-A α5β3γ2 [1]
  Ki: 10.2 nM
h-GABA-A α5β3γ2 [2]
  Efficacy (GABA) %: 63%
  Fold increase h-GABA-A α5β3γ2 oocyte: 1.63

## CC(=O)N(C)[C@@H]1CCN(c2cnn(Cc3c(-c4ccc(C)nc4)noc3C)c(=O)c2)C1 [Example 2, N-methyl-N-[(3R)-1-[1-[[5-methyl-3-(6-methyl-3-pyridyl)isoxazol-4-yl]methyl]-6-oxo-pyridazin-4-yl]pyrrolidin-3-yl]acetamide]
h-GABA-A α5β3γ2 [1]
  Ki: 26.2 nM
h-GABA-A α5β3γ2 [2]
  Efficacy (GABA) %: 155%
  Fold increase h-GABA-A α5β3γ2 oocyte: 2.55

## Cc1ccc(-c2noc(C)c2Cn2ncc(N3CC[C@@H](O)C3)cc2=O)cn1 [Example 3, 5-[(3R)-3-hydroxypyrrolidin-1-yl]-2-[[5-methyl-3-(6-methyl-3-pyridyl)isoxazol-4-yl]methyl]pyridazin-3-one]
h-GABA-A α5β3γ2 [1]
  Ki: 10.6 nM
h-GABA-A α5β3γ2 [2]
  Efficacy (GABA) %: 110%
  Fold increase h-GABA-A α5β3γ2 oocyte: 2.1

## Cc1ccc(-c2noc(C)c2Cn2ncc(N3CC[C@H](O)C3)cc2=O)cn1 [Example 4, 5-[(3S)-3-hydroxypyrrolidin-1-yl]-2-[[5-methyl-3-(6-methyl-3-pyridyl)isoxazol-4-yl]methyl]pyridazin-3-one]
h-GABA-A α5β3γ2 [1]
  Ki: 8.6 nM
h-GABA-A α5β3γ2 [2]
  Efficacy (GABA) %: 145%
  Fold increase h-GABA-A α5β3γ2 oocyte: 2.45

## Cc1ccc(-c2noc(C)c2Cn2ncc(N3CCC(O)CC3)cc2=O)cn1 [Example 5, 5-(4-hydroxy-1-piperidyl)-2-[[5-methyl-3-(6-methyl-3-pyridyl)isoxazol-4-yl]methyl]pyridazin-3-one]
h-GABA-A α5β3γ2 [1]
  Ki: 1.6 nM
h-GABA-A α5β3γ2 [2]
  Efficacy (GABA) %: 155%
  Fold increase h-GABA-A α5β3γ2 oocyte: 2.55

## Cc1ccc(-c2noc(C)c2Cn2ncc(N3CCOC(C)(C)C3)cc2=O)cn1 [Example 6, 5-(2,2-dimethylmorpholin-4-yl)-2-((5-methyl-3-(6-methylpyridin-3-yl)-1,2-oxazol-4-yl)methyl)pyridazin-3-one]
h-GABA-A α5β3γ2 [1]
  Ki: 0.6 nM
h-GABA-A α5β3γ2 [2]
  Efficacy (GABA) %: 145%
  Fold increase h-GABA-A α5β3γ2 oocyte: 2.45

## Cc1ccc(-c2noc(C)c2Cn2ncc(N3C[C@@H](C)O[C@@H](C)C3)cc2=O)cn1 [Example 7, 5-(cis-2,6-dimethylmorpholin-4-yl)-2-((5-methyl-3-(6-methylpyridin-3-yl)-1,2-oxazol-4-yl)methyl)pyridazin-3-one]
h-GABA-A α5β3γ2 [1]
  Ki: 1 nM
h-GABA-A α5β3γ2 [2]
  Efficacy (GABA) %: 253%
  Fold increase h-GABA-A α5β3γ2 oocyte: 3.53

## CCOC(=O)C1CCN(c2cnn(Cc3c(-c4ccc(C)nc4)noc3C)c(=O)c2)CC1 [Example 8, ethyl 1-(1-((5-methyl-3-(6-methylpyridin-3-yl)-1,2-oxazol-4-yl)methyl)-6-oxopyridazin-4-yl)piperidine-4-carboxylate]
h-GABA-A α5β3γ2 [1]
  Ki: 26.4 nM
h-GABA-A α5β3γ2 [2]
  Efficacy (GABA) %: 168%
  Fold increase h-GABA-A α5β3γ2 oocyte: 2.68

## Cc1ccc(-c2noc(C)c2Cn2ncc(N3CCN(C(=O)C4CC4)CC3)cc2=O)cn1 [Example 9, 5-(4-(cyclopropanecarbonyl)piperazin-1-yl)-2-((5-methyl-3-(6-methylpyridin-3-yl)isoxazol-4-yl)methyl)pyridazin-3(2H)-one]
h-GABA-A α5β3γ2 [1]
  Ki: 15.9 nM
h-GABA-A α5β3γ2 [2]
  Efficacy (GABA) %: 153%
  Fold increase h-GABA-A α5β3γ2 oocyte: 2.53

## Cc1ccc(-c2noc(C)c2Cn2ncc(N3CCN(C(=O)C4(C)CC4)CC3)cc2=O)cn1 [Example 10, 2-((5-methyl-3-(6-methylpyridin-3-yl)isoxazol-4-yl)methyl)-5-(4-(1-methylcyclopropanecarbonyl)piperazin-1-yl)pyridazin-3(2H)-one]
h-GABA-A α5β3γ2 [1]
  Ki: 21.9 nM
h-GABA-A α5β3γ2 [2]
  Efficacy (GABA) %: 222%
  Fold increase h-GABA-A α5β3γ2 oocyte: 3.22

## Cc1onc(-c2ccc(F)cc2)c1Cn1ncc(N2CCOCC2)cc1=O [Example 11, 2-((3-(4-Fluorophenyl)-5-methylisoxazol-4-yl)methyl)-5-morpholinopyridazin-3(2H)-one]
h-GABA-A α5β3γ2 [1]
  Ki: 7.9 nM
h-GABA-A α5β3γ2 [2]
  Efficacy (GABA) %: 57%
  Fold increase h-GABA-A α5β3γ2 oocyte: 1.57
